According to patent US10487093B2, “Heterocyclic compounds, in particular 2-oxo-4,4,5,5,6,6,7,7-octahydrobenzoxazole derivatives, and their use as antibacterial compounds” (priority 2016, dated 2019):
Converted amounts (≈) assume the structure as drawn.

Tests used:
[1] = tested on: Acinetobacter baumannii NCTC 13420; test: MIC, broth microdilution (CLSI) versus planktonic bacteria; format: cell-based; conditions: NCTC13420; Acinetobacter baumannii NCTC 13420; 16-20 h; mode of three independent experiments; read-out: MIC, Ab NCTC 13420
[2] = tested on: Enterobacter cloacae NCTC 13406; test: as above; format: cell-based; conditions: NCTC13406; Enterobacter cloacae NCTC 13406; 16-20 h; mode of three independent experiments; read-out: MIC, Ecl NCTC 13406
[3] = tested on: Escherichia coli ATCC 25922; test: as above; format: cell-based; conditions: ATCC25922; Escherichia coli ATCC 25922; 16-20 h; mode of three independent experiments; read-out: MIC, Ec ATCC 25922
[4] = tested on: Haemophilus influenzae ATCC 49247; test: as above; format: cell-based; conditions: ATCC49247; Haemophilus influenzae ATCC 49247; 16-20 h; mode of three independent experiments; read-out: MIC, Hi ATCC 49247
[5] = tested on: Pseudomonas aeruginosa ATCC 27853; test: as above; format: cell-based; conditions: ATCC27853; Pseudomonas aeruginosa ATCC 27853; 16-20 h; mode of three independent experiments; read-out: MIC, Pa ATCC 27853
[6] = tested on: Staphylococcus aureus ATCC 29213; test: as above; format: cell-based; conditions: ATCC29213; Staphylococcus aureus ATCC 29213; 16-20 h; mode of three independent experiments; read-out: MIC, Sa ATCC 29213
[7] = tested on: Streptococcus pneumoniae ATCC 49619; test: as above; format: cell-based; conditions: ATCC49619; Streptococcus pneumoniae ATCC 49619; 16-20 h; mode of three independent experiments; read-out: MIC, Sp ATCC 49619
[8] = tested on: human hepatic cell line (HepG2 ATCC HB-8065); test: Human cell viability assay (CellTiter-Glo); conditions: Homo sapiens, HepG2, 24 h, read-out: IC50 (μg/mL) HepG2

SMILES	MIC [1]	MIC [2]	MIC [3]	MIC [4]	MIC [5]	MIC [6]	MIC [7]	IC50 [8]
COc1ccc2ccc(=O)n(CCN[C@H]3CC[C@H]4[C@@H](C3)OC(=O)N4c3ncc4c(n3)NC(=O)CO4)c2n1 [Compound 16]	1 to 10 µg/mL (≈ 1.97 to 19.7 µM)	1 to 10 µg/mL (≈ 1.97 to 19.7 µM)	< 1 µg/mL	< 1 µg/mL	1 to 10 µg/mL (≈ 1.97 to 19.7 µM)	< 1 µg/mL	< 1 µg/mL	> 100 µg/mL
COc1ncc2ccc(=O)n(CCN[C@H]3CC[C@H]4[C@@H](C3)OC(=O)N4c3ccc4c(n3)NC(=O)CO4)c2n1 [Compound 17, (3aS,6S,7aR)-6-[(2-{2-methoxy-7-oxo-7H,8H-pyrido[2,3-d]pyrimidin-8-yl}ethyl)amino]-3-{3-oxo-2H,3H,4H-pyrido[3,2-b][1,4]oxazin-6-yl}-octahydro-1,3-benzoxazol-2-one]	10 to 100 µg/mL (≈ 19.7 to 197 µM)	10 to 100 µg/mL (≈ 19.7 to 197 µM)	1 to 10 µg/mL (≈ 1.97 to 19.7 µM)	10 to 100 µg/mL (≈ 19.7 to 197 µM)	10 to 100 µg/mL (≈ 19.7 to 197 µM)	1 to 10 µg/mL (≈ 1.97 to 19.7 µM)	10 to 100 µg/mL (≈ 19.7 to 197 µM)	10 to 100 µg/mL (≈ 19.7 to 197 µM)
N#Cc1ccc2ccc(=O)n(CCN(CCN)[C@@H]3CC[C@@H]4[C@@H](C3)OC(=O)N4c3ccc4c(n3)NC(=O)CO4)c2c1 [Compound 19, 1-(2-{[(3aR,6R,7aR)-2-oxo-3-{3-oxo-2H,3H,4H-pyrido[3,2-b][1,4]oxazin-6-yl}-octahydro-1,3-benzoxazol-6-yl](2-aminoethyl)amino}ethyl)-2-oxo-1,2-dihydroquinoline-7-carbonitrile]	10 to 100 µg/mL (≈ 18.4 to 184 µM)	> 100 µg/mL	10 to 100 µg/mL (≈ 18.4 to 184 µM)	10 to 100 µg/mL (≈ 18.4 to 184 µM)	10 to 100 µg/mL (≈ 18.4 to 184 µM)	< 1 µg/mL	> 100 µg/mL	> 100 µg/mL
O=C1COc2ccc(N3C(=O)O[C@@H]4C[C@H](NCCn5c(=O)ccc6ccc(O)cc65)CC[C@H]43)nc2N1 [Compound 20, 1-(2-{[(3aR,6R,7aR)-2-oxo-3-{3-oxo-2H,3H,4H-pyrido[3,2-b][1,4]oxazin-6-yl}-octahydro-1,3-benzoxazol-6-yl]amino}ethyl)-7-hydroxy-1,2-dihydroquinolin-2-one]	10 to 100 µg/mL (≈ 20.3 to 203 µM)	1 to 10 µg/mL (≈ 2.03 to 20.3 µM)	< 1 µg/mL	< 1 µg/mL	1 to 10 µg/mL (≈ 2.03 to 20.3 µM)	< 1 µg/mL	10 to 100 µg/mL (≈ 20.3 to 203 µM)	> 100 µg/mL
COc1ccc2ccc(=O)n(CCN[C@@H]3CC[C@@H]4[C@H](C3)OC(=O)N4c3ccc4c(n3)NC(=O)CO4)c2n1 [Compound 25, 1-(2-{[(3aR,6R,7aS)-2-oxo-3-{3-oxo-2H,3H,4H-pyrido[3,2-b][1,4]oxazin-6-yl}-octahydro-1,3-benzoxazol-6-yl]amino}ethyl)-7-methoxy-1,2-dihydro-1,8-naphthyridin-2-one]	< 1 µg/mL	< 1 µg/mL	< 1 µg/mL	< 1 µg/mL	1 to 10 µg/mL (≈ 1.97 to 19.7 µM)	< 1 µg/mL	< 1 µg/mL	10 to 100 µg/mL (≈ 19.7 to 197 µM)
O=C1COc2ccc(N3C(=O)O[C@@H]4C[C@@H](NCCn5c(=O)cnc6ccc(F)cc65)CC[C@@H]43)nc2N1 [Compound 26, 1-(2-{[(3aS,6S,7aR)-2-oxo-3-{3-oxo-2H,3H,4H-pyrido[3,2-b][1,4]oxazin-6-yl}-octahydro-1,3-benzoxazol-6-yl]amino}ethyl)-7-fluoro-1,2-dihydroquinoxalin-2-one]	< 1 µg/mL	1 to 10 µg/mL (≈ 2.02 to 20.2 µM)	< 1 µg/mL	< 1 µg/mL	1 to 10 µg/mL (≈ 2.02 to 20.2 µM)	< 1 µg/mL	< 1 µg/mL	> 100 µg/mL
O=C1COc2ccc(N3C(=O)O[C@@H]4C[C@@H](NCCn5c(=O)ccc6ncc(F)cc65)CC[C@@H]43)nc2N1 [Compound 28, 1-(2-{[(3aS,6S,7aR)-2-oxo-3-{3-oxo-2H,3H,4H-pyrido[3,2-b][1,4]oxazin-6-yl}-octahydro-1,3-benzoxazol-6-yl]amino}ethyl)-7-fluoro-1,2-dihydro-1,5-naphthyridin-2-one]	1 to 10 µg/mL (≈ 2.02 to 20.2 µM)	1 to 10 µg/mL (≈ 2.02 to 20.2 µM)	< 1 µg/mL	1 to 10 µg/mL (≈ 2.02 to 20.2 µM)	1 to 10 µg/mL (≈ 2.02 to 20.2 µM)	< 1 µg/mL	< 1 µg/mL	> 100 µg/mL
CN(C)CCOc1ccc2ccc(=O)n(CCN[C@@H]3CC[C@@H]4[C@@H](C3)OC(=O)N4c3ccc4c(n3)NC(=O)CO4)c2c1 [Compound 32, 1-(2-{[(3aR,6R,7aR)-2-oxo-3-{3-oxo-2H,3H,4H-pyrido[3,2-b][1,4]oxazin-6-yl}-octahydro-1,3-benzoxazol-6-yl]amino}ethyl)-7-[2-(dimethylamino)ethoxy]-1,2-dihydroquinolin-2-one]	> 100 µg/mL	10 to 100 µg/mL (≈ 17.8 to 178 µM)	1 to 10 µg/mL (≈ 1.78 to 17.8 µM)	10 to 100 µg/mL (≈ 17.8 to 178 µM)	1 to 10 µg/mL (≈ 1.78 to 17.8 µM)	1 to 10 µg/mL (≈ 1.78 to 17.8 µM)	1 to 10 µg/mL (≈ 1.78 to 17.8 µM)	> 100 µg/mL
COc1ncc2ccc(=O)n(CCN[C@@H]3CC[C@@H]4[C@@H](C3)OC(=O)N4c3ncc4c(n3)NC(=O)CO4)c2n1 [Compound 33, (3aR,6R,7aR)-6-[(2-{2-methoxy-7-oxo-7H,8H-pyrido[2,3-d]pyrimidin-8-yl}ethyl)amino]-3-{7-oxo-6H,7H,8H-pyrimido[5,4-b][1,4]oxazin-2-yl}-octahydro-1,3-benzoxazol-2-one]	10 to 100 µg/mL (≈ 19.7 to 197 µM)	1 to 10 µg/mL (≈ 1.97 to 19.7 µM)	< 1 µg/mL	1 to 10 µg/mL (≈ 1.97 to 19.7 µM)	10 to 100 µg/mL (≈ 19.7 to 197 µM)	< 1 µg/mL	< 1 µg/mL	–
COc1cnc2ccc(=O)n(CCN[C@@H]3CC[C@@H]4[C@@H](C3)OC(=O)N4c3ncc4c(n3)NC(=O)CO4)c2c1 [Compound 41, 1-(2-{[(3aR,6R,7aR)-2-oxo-3-{7-oxo-6H,7H,8H-pyrimido[5,4-b][1,4]oxazin-2-yl}-octahydro-1,3-benzoxazol-6-yl]amino}ethyl)-7-methoxy-1,2-dihydro-1,5-naphthyridin-2-one]	10 to 100 µg/mL (≈ 19.7 to 197 µM)	1 to 10 µg/mL (≈ 1.97 to 19.7 µM)	< 1 µg/mL	–	1 to 10 µg/mL (≈ 1.97 to 19.7 µM)	< 1 µg/mL	< 1 µg/mL	–
COc1ncc2ccc(=O)n(CCN[C@H]3CC[C@H]4[C@H](C3)OC(=O)N4c3ccc4c(n3)NC(=O)CO4)c2n1 [Compound 52, (3aS,6S,7aS)-6-[(2-{2-methoxy-7-oxo-7H,8H-pyrido[2,3-d]pyrimidin-8-yl}ethyl)amino]-3-{3-oxo-2H,3H,4H-pyrido[3,2-b][1,4]oxazin-6-yl}-octahydro-1,3-benzoxazol-2-one]	1 to 10 µg/mL (≈ 1.97 to 19.7 µM)	1 to 10 µg/mL (≈ 1.97 to 19.7 µM)	< 1 µg/mL	< 1 µg/mL	10 to 100 µg/mL (≈ 19.7 to 197 µM)	< 1 µg/mL	< 1 µg/mL	–
COc1cccc(-c2cccc(CN[C@H]3CC[C@H]4[C@H](C3)OC(=O)N4c3ccc4c(n3)NC(=O)CO4)c2)n1 [Compound 73, (3aS,6S,7aS)-6-({[3-(6-methoxypyridin-2-yl)phenyl]methyl}amino)-3-{3-oxo-2H,3H,4H-pyrido[3,2-b][1,4]oxazin-6-yl}-octahydro-1,3-benzoxazol-2-one]	1 to 10 µg/mL (≈ 1.99 to 19.9 µM)	1 to 10 µg/mL (≈ 1.99 to 19.9 µM)	< 1 µg/mL	1 to 10 µg/mL (≈ 1.99 to 19.9 µM)	10 to 100 µg/mL (≈ 19.9 to 199 µM)	< 1 µg/mL	1 to 10 µg/mL (≈ 1.99 to 19.9 µM)	–
COc1cnc2ccc(=O)n(CCCN[C@H]3CC[C@H]4[C@H](C3)OC(=O)N4c3ccc4c(n3)NC(=O)CS4)c2c1 [Compound 96, 1-(3-{[(3aS,6S,7aS)-2-oxo-3-{3-oxo-2H,3H,4H-pyrido[3,2-b][1,4]thiazin-6-yl}-octahydro-1,3-benzoxazol-6-yl]amino}propyl)-7-methoxy-1,2-dihydro-1,5-naphthyridin-2-one]	< 1 µg/mL	< 1 µg/mL	–	< 1 µg/mL	1 to 10 µg/mL (≈ 1.86 to 18.6 µM)	< 1 µg/mL	–	–
O=C1COc2ccc(N3C(=O)O[C@H]4C[C@@H](NCCn5c(=O)ccc6ccc(OCCN7CCOCC7)cc65)CC[C@@H]43)nc2N1 [Compound 97, 1-(2-{[(3aS,6S,7aS)-2-oxo-3-{3-oxo-2H,3H,4H-pyrido[3,2-b][1,4]oxazin-6-yl}-octahydro-1,3-benzoxazol-6-yl]amino}ethyl)-7-[2-(morpholin-4-yl)ethoxy]-1,2-dihydroquinolin-2-one]	1 to 10 µg/mL (≈ 1.65 to 16.5 µM)	10 to 100 µg/mL (≈ 16.5 to 165 µM)	1 to 10 µg/mL (≈ 1.65 to 16.5 µM)	1 to 10 µg/mL (≈ 1.65 to 16.5 µM)	10 to 100 µg/mL (≈ 16.5 to 165 µM)	< 1 µg/mL	1 to 10 µg/mL (≈ 1.65 to 16.5 µM)	–
O=C1COc2ccc(N3C(=O)O[C@H]4C[C@@H](NCCn5c(=O)ccc6ccc(OC7CNC7)cc65)CC[C@@H]43)nc2N1 [Compound 103, 1-(2-{[(3aS,6S,7aS)-2-oxo-3-{3-oxo-2H,3H,4H-pyrido[3,2-b][1,4]oxazin-6-yl}-octahydro-1,3-benzoxazol-6-yl]amino}ethyl)-7-(azetidin-3-yloxy)-1,2-dihydroquinolin-2-one]	10 to 100 µg/mL (≈ 18.3 to 183 µM)	–	1 to 10 µg/mL (≈ 1.83 to 18.3 µM)	–	1 to 10 µg/mL (≈ 1.83 to 18.3 µM)	–	1 to 10 µg/mL (≈ 1.83 to 18.3 µM)	–
N#Cc1ccc2c(ccc(=O)n2CCN[C@H]2CC[C@H]3[C@H](C2)OC(=O)N3c2ccc3c(n2)NC(=O)CO3)c1 [Compound 107, 1-(2-{[(3aS,6S,7aS)-2-oxo-3-{3-oxo-2H,3H,4H-pyrido[3,2-b][1,4]oxazin-6-yl}-octahydro-1,3-benzoxazol-6-yl]amino}ethyl)-2-oxo-1,2-dihydroquinoline-6-carbonitrile]	1 to 10 µg/mL (≈ 2 to 20 µM)	10 to 100 µg/mL (≈ 20 to 200 µM)	1 to 10 µg/mL (≈ 2 to 20 µM)	1 to 10 µg/mL (≈ 2 to 20 µM)	> 100 µg/mL	1 to 10 µg/mL (≈ 2 to 20 µM)	1 to 10 µg/mL (≈ 2 to 20 µM)	–
